Test results reported in PubChem BioAssay (NCI).
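Test compounds were applied to cells in 96-well plates for 48 hours at 5 doses. GI50: concentration for 50% inhibition of growth. Definition used: TGI = concentration required for complete inhibition of growth.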

Assays:
Assay in all cases: NCI-60 cell line screen, 48 h
SK-MEL-28 melanoma = test system: SK-MEL-28 melanoma
SK-MEL-5 melanoma = test system: SK-MEL-5 melanoma
HCT-15 colon = test system: HCT-15 colon
SF-268 CNS = test system: SF-268 CNS
EKVX NSCLC = test system: EKVX NSCLC
SN12C renal = test system: SN12C renal
COLO 205 colon = test system: COLO 205 colon
SF-539 CNS = test system: SF-539 CNS
MDA-MB-435 = test system: MDA-MB-435
HL-60(TB) leukemia = test system: HL-60(TB) leukemia

| Compound | TGI (SK-MEL-28 melanoma) | TGI (SK-MEL-5 melanoma) | TGI (HCT-15 colon) | TGI (SF-268 CNS) | TGI (EKVX NSCLC) | TGI (SN12C renal) | TGI (COLO 205 colon) | TGI (SF-539 CNS) | TGI (MDA-MB-435) | TGI (HL-60(TB) leukemia) | GI50 (SK-MEL-28 melanoma) | GI50 (HCT-15 colon) | GI50 (SF-268 CNS) | GI50 (EKVX NSCLC) | GI50 (SN12C renal) | GI50 (COLO 205 colon) | GI50 (SF-539 CNS) | GI50 (MDA-MB-435) | GI50 (HL-60(TB) leukemia) | GI50 (SK-MEL-5 melanoma) |
| --- | --- | --- | --- | --- | --- | --- | --- | --- | --- | --- | --- | --- | --- | --- | --- | --- | --- | --- | --- | --- |
| O=[N+]([O-])c1cc([As](Br)c2ccc(O)c([N+](=O)[O-])c2)ccc1O | 3.31 µM | 3.1 µM | > 20.8 µM | 5.59 µM | 3.86 µM | 3.3 µM | 3.25 µM | 3.93 µM | 3.51 µM | 4.63 µM |  |  |  |  |  |  |  |  |  |  |
| CCCC(=O)N[C@H]1CCc2cc(OC)c(OC)c(OC)c2-c2ccc(SC)c(=O)cc21 | > 100 µM | < 0.0989 µM | > 100 µM | 62.7 µM | > 100 µM | > 91.8 µM | < 0.01 µM | < 0.01 µM | < 0.01 µM | < 0.01 µM |  |  |  |  |  |  |  |  |  |  |
| NC(=O)c1cccnc1 | > 100 µM |  | > 100 µM | > 100 µM | > 100 µM | > 100 µM | > 100 µM | > 100 µM | > 100 µM | > 100 µM | > 100 µM | > 100 µM | > 100 µM | > 100 µM | > 100 µM | > 100 µM | > 100 µM | > 100 µM | > 100 µM |  |
| CC(C)(C)NCC(O)COc1c(Br)c(Br)c(Br)c2c1OC(C)(C)C2 (stereo not drawn) | 3.29 µM | 2.89 µM | 3.4 µM | 3.38 µM | 3.02 µM | 3.43 µM | 3.2 µM | 3.18 µM | 3.96 µM | 3.1 µM | 1.81 µM | 1.89 µM | 1.73 µM | 1.61 µM | 1.87 µM | 1.55 µM | 1.67 µM | 2.02 µM | 1.53 µM | 1.55 µM |
| C=C1C(=O)O[C@H]2[C@H]1CC/C(COC(=O)NCc1ccc(Cn3c(=O)sn(CCCCC)c3=O)cc1)=C\CC[C@@]1(C)O[C@@H]21 | 3.47 µM | 14.3 µM | 3.23 µM | 3.97 µM | 5.59 µM | 3.72 µM | 3.33 µM | 3.2 µM | 3.5 µM | 4.12 µM | 1.85 µM | 1.66 µM | 1.88 µM | 1.85 µM | 1.71 µM | 1.78 µM | 1.64 µM | 1.71 µM | 1.1 µM | 3.92 µM |
| CC(=O)/C=C/c1ccc(Nc2c3ccccc3nc3occ(Cl)c23)cc1 | > 100 µM |  | 11.7 µM | 17.5 µM | 78.2 µM | 14.3 µM | 19.5 µM | 22.9 µM | 5.95 µM | 8.56 µM | 15.1 µM | 2.09 µM | 3.16 µM | 27.2 µM | 3.29 µM | 4.46 µM | 4.52 µM | 2.03 µM | 3.1 µM |  |
| Nc1c(C(=O)c2cccc(C#CCN3CCCCC3)c2)cnn1-c1ccc(F)cc1 | > 25 µM | > 25 µM | > 25 µM | > 25 µM |  | > 25 µM | > 25 µM | > 25 µM | > 25 µM | > 25 µM | > 25 µM | > 22.5 µM | > 25 µM |  | 24.4 µM | 24.9 µM | > 25 µM | 15.3 µM | 15.9 µM | 9.59 µM |
| CCCc1nc(Cl)nc(Cl)c1Cl | 2.05 µM | 3.21 µM | 3.15 µM | 4.17 µM | 2.63 µM | 2.13 µM |  | 2.94 µM | 1.41 µM | 0.359 µM |  |  |  |  |  |  |  |  |  |  |
| O=C1/C(=C\c2ccco2)Oc2ccccc21 | > 100 µM | > 100 µM | > 100 µM | > 100 µM | > 100 µM | > 100 µM | > 100 µM |  | > 100 µM | > 100 µM |  |  |  |  |  |  |  |  |  |  |
| CCSc1ccc([C@@H]2[C@@H](O)C(=O)N2c2cc(OC)c(OC)c(OC)c2)cc1 | 33 µM | 0.433 µM | > 44.3 µM | 51.7 µM | 53 µM | 22.2 µM | 0.072 µM |  | < 0.0112 µM | 0.0367 µM | 11.7 µM | < 0.0109 µM | 0.0504 µM | 0.0226 µM | 0.0441 µM | 0.0163 µM |  | < 0.01 µM | < 0.0134 µM | < 0.0118 µM |
| COc1ccc(C(=O)c2sc3nc(-c4ccccc4OC)ccc3c2N)cc1OC | > 100 µM | 5.68 µM | > 100 µM | > 100 µM |  | > 100 µM | > 100 µM | > 100 µM | > 100 µM | > 100 µM | > 100 µM | 6.13 µM | 11.9 µM |  | 7.95 µM | 8.9 µM | 20 µM | 4.25 µM | 4.07 µM | 2.05 µM |
